# Assay results as given in a melting point compilation (Tetko et al.; mined from patent text by program, amines drawn as free bases though some values may be those of a salt).
row,Structure (SMILES),melting point [°C]
1,Fc1c(F)c(F)c2c(CCNCc3cccc(OCC(F)(F)F)c3)c[nH]c2c1F,107 to 108
2,O=C1N(Cc2ccc(C(F)F)o2)c2ccccc2C12COc1cc3c(cc12)OCCO3 (configuration not stated),173 to 175
3,CC(=O)Nc1ccc(OC(C)(C)c2nc3ccccc3s2)cc1,149 to 150
4,COC(=O)NC1=NC(c2ccc(C(C)C)cc2)CCN1 (configuration not stated),195 to 197
5,Cc1cnc(C2CCCCC2)n2c1c(CCBr)c1ccccc12,137 to 139
6,Cc1cc(C2=NN(C(=S)Cl)[C@H](C)Cc3cc4c(cc32)OCO4)ccc1[N+](=O)[O-],193 to 196
7,Cc1cccc(OCC2=NCCN2C(=S)N(C)C)c1C,124 to 127
8,CCOCc1nc2c(N)nc3cc(O)ccc3c2n1CC(C)(C)NC(C)=O,140
9,COCC(=S)Nc1c(Cl)c(Cl)cc2nc(OC)c(OC)nc12,198 to 200
10,COc1ccc(-c2nc(SC(F)(F)CF)[nH]c2-c2ccc(OC)cc2)cc1,144 to 145
11,O=[N+]([O-])c1cc(C2=NOC(c3cc(C(F)(F)F)cc(C(F)(F)F)c3)(C(F)(F)F)C2)ccc1-n1cnnn1 (configuration not stated),173 to 175
12,Cc1cc(C)n(-c2nc(Nc3ccc(Cl)cc3)cnc2CN)n1,173 to 176
13,Cc1nc(C)c(-c2ccc(C#N)cc2)s1,108 to 110
14,N=C(N)NC(=O)Cc1c(-c2ccccc2)cccc1-c1ccc2ccccc2c1,36.8 to 36.9
15,CCOC(=O)CN(C(=O)CC)c1c(SC(F)(F)F)c(C)nn1-c1c(Cl)cc(C(F)(F)F)cc1Cl,73 to 74
16,CCOC(=O)C1(NC=O)Cc2cccc3c2N(CCC3)C1=O (configuration not stated),103 to 106
17,Cc1c(N)ccc2c1C(=O)NS2(=O)=O,272 to 273
18,CCCCCCCCCCCCCCOc1cc(OCCCCCCc2cccc(O)c2O)cc(C(=O)O)c1,92 to 94
19,O=C1OC2CCSC2Cn2cccc21 (configuration not stated),167 to 168
20,CCCCCCC(C(=O)O)n1cnc2c(NC(=O)c3ccccc3-c3nn[nH]n3)cccc21 (configuration not stated),130 to 134
21,Fc1cccc2c(Nc3ccncc3)noc12,234 to 236
22,COC(=O)N1C=C(C=O)CC([C@@H]2CCCN2C)=C1,78 to 80
23,COc1ccc(CC2(C)CN(C(c3ccccc3)c3ccccc3)CCN2C)cc1OC (configuration not stated),102
24,O=C(OCC1c2ccccc2-c2ccc(S(=O)(=O)O)cc21)ON1C(=O)CCC1=O (configuration not stated),140 to 146
25,CCOP(=O)(/C=C/c1cn(-c2ccccc2)nc1OCc1ccc(OCc2nc(-c3ccc(C(N)=O)cc3)oc2C)c(OC)c1)OCC,146 to 148
26,Cc1oc(-c2ccccc2)nc1CCOc1ccc(COc2cc3ccccc3cc2C(=O)O)cc1,135 to 137

row,Structure (SMILES),melting point [°C]
1,COc1c(C)cc(N2CCN(S(=O)(=O)c3ccc(C)cc3)CC2)cc1C,174
2,COCCCNc1cc(C(F)(F)F)ccc1N,69 to 70
3,COc1ccc(NC(=O)C2(C(=O)O)CC2)cc1,133 to 136
4,CCCCC1=C(C(=O)O)Nc2ccc(C(=O)O)cc2C1O (configuration not stated),> 260
5,CC(C)n1cc(-c2ccc(F)cc2)nn1,54 to 55
6,CSC(=NS(=O)(=O)c1ccc(C)cc1)N1CCc2nc(N)sc2C1,191 to 195
7,O=C(Nc1ccc(Cl)c2c(-n3ccnc3)ccnc12)c1c(Cl)cccc1Cl,259 to 263
8,CCCCCCCCCCCCCCCCCCCCCCSCCC(=O)NN,106
9,CCC(CC)O[C@@H]1C=C(C(=O)OC)C[C@H](CC(O)CO)[C@H]1NC(C)=O (some centres not stated),125 to 126
10,CCOC(=O)c1cccc(-c2nc(-c3cc(C)sc3C)cs2)c1,115 to 116
11,CCCOc1nc(O)ns1,92
12,CC(=O)OC1CSC(Oc2cc(F)cnc2Cl)C(OC(C)=O)C1OC(C)=O (configuration not stated),185
13,Nc1ccc2c(c1)ncn2-c1ccccc1,272 to 274
14,CC(C)N1CN(C(=O)c2c(F)cccc2F)C(=O)N(c2ccc(Cl)cc2)C1,130 to 131
15,Cc1ccc(C(=O)NC(NC(=NC#N)Nc2cccnc2)C(Cl)(Cl)Cl)cc1 (configuration not stated),165 to 166
16,COc1ccc(N2CCN(C3CCN(CC(O)COc4cccc5[nH]c(C)cc45)CC3)C2=O)cc1 (configuration not stated),155 to 157
17,CCN(CC)C(=O)c1ccc2ccccc2c1/C=C/c1ccccc1,86 to 89
18,CCOC(=O)c1cc2c(C)ccc(OCCO)c2[nH]1,166 to 167
19,Cc1cc(SCc2cccc3[nH]c(-c4ccc(C(F)(F)F)cc4)cc23)ccc1OCC(=O)O,85 to 88
20,O=[N+]([O-])c1oc2cc3c(cc2c1-c1ccccc1)CCC3,161 to 164
21,Cc1nn(C(=O)NCC2CC2(Cl)Cl)c(=O)n1N (configuration not stated),149
22,C=C1CCC2C3CCC4CC(O)C(OC)CC4(C)C3CCC12C (configuration not stated),131 to 133
23,Cc1[nH]c(=O)ccc1C(=O)c1ccc(O)cc1,280 to 282
24,O=C(Nc1ccncn1)NN1CC=CCC1,188
25,CCCCc1cn(-c2c(C)cc(C(C)(C)C)cc2C)c(=O)n1Cc1ccc(-c2ccccc2-c2nnn[nH]2)cc1,134 to 135
26,COc1cc(-c2cc(=Nc3c(C)cc(C)cc3C)n(C)c(=O)n2C)ccc1O,90 to 100

row,Structure (SMILES),melting point [°C]
1,O=C1OC(=O)c2c(F)cc(F)cc21,87 to 89
2,NCCOc1ncc(Cl)c(N)c1Cl,115 to 116
3,CC(C)c1ccc2ncn(/C=C/C(=O)NCCNCc3ccccn3)c(=O)c2c1,91 to 95
4,CC(=O)OCC1OC(OCC(=O)c2cc(OCc3ccccc3)c(OCc3ccccc3)c(OCc3ccccc3)c2)C(OC(C)=O)C(OC(C)=O)C1OC(C)=O (configuration not stated),156 to 158
5,CCCCc1nn(-c2cccc(NC(=O)CC)c2)c(=O)n1Cc1ccc(-c2ccccc2S(=O)(=O)NC(=O)c2ccccc2Cl)cc1,105 to 107
6,CCCCCCCCC(O)CNCCCCCCNCC(O)CCCCCCCC (configuration not stated),118 to 127
7,Oc1ccc(SCc2cc(O)c(O)c(O)c2)cc1,158
8,O=C1CCC(c2ccccc2F)=NN1,119 to 121
9,C1=C(c2c[nH]c3ncccc23)CCN(CCOc2cccc3ncccc23)C1,202 to 205
10,CCC(C(=O)O)N(C(=O)c1cnn(-c2ccc(F)cc2)c1)c1ccc(OCC(C)(C)C)c(C#N)c1 (configuration not stated),153 to 155
11,C=C(C)C(=O)OCCNc1nc(Cl)nc(Cl)n1,138 to 140
12,CC(=O)N(C)CCCC(=O)OC1c2ccccc2C(=O)N1c1ccc2ccc(Cl)nc2n1 (configuration not stated),170
13,Cc1nc2c(OCc3c(Cl)ccc(N(C)C(=O)CN4C(=O)c5ccccc5C4=O)c3Cl)cccn2c1Br,229 to 230
14,O=c1nc(-c2ccccc2)c2cc([N+](=O)[O-])ccc2n1CC12CC3CC(CC(C3)C1)C2,228 to 231
15,Cc1oc(-c2ccccc2)nc1COc1ccc(Cn2cc(CCCCC(=O)O)c(-c3ccccc3)n2)cc1,109 to 110
16,CCCc1c(OCCCOc2ccc3c(c2CCC)OC(C)(CCC(N)=O)CC3=O)ccc(C(C)=O)c1O (configuration not stated),77 to 79
17,CN(C)CCc1cccc(N2C(=O)N(c3ccc(Cl)cc3Cl)Cc3cnc(Nc4ccccc4)nc32)c1,101 to 105
18,CCOC(=O)Nc1nc(C)c(-c2nc3ccccc3c(=O)n2-c2cccc(Cl)c2)s1,262 to 263
19,O=Cc1c(Cl)nc(-c2ccccc2)n1Cc1ccc([N+](=O)[O-])cc1,150 to 152
20,CC(O)c1cccc(-c2cc3c(=O)n(NS(C)(=O)=O)c(=O)[nH]c3cc2C(F)(F)F)c1 (configuration not stated),165 to 169
21,Cc1ncoc1C(=O)c1ccoc1,82 to 83.5
22,OCc1cc2cc(Br)ccc2[nH]1,111 to 112
23,CCOc1nc(Cl)nc2cscc12,136 to 140
24,CC(C)c1nc(-c2ccccc2)c(-c2ccccc2)c(-c2ccc(F)cc2)c1CO,169 to 171
25,CCCCNC(=O)NC1CCNCC1,132 to 134
26,Cc1ncn(Nc2ccccc2)c1C,178

row,Structure (SMILES),melting point [°C]
1,Cc1c(OCCCSc2ccc3ncc([N+](=O)[O-])n3n2)ccnc1CO,135 to 136
2,O=[N+]([O-])c1cccc(OC2CCCCO2)c1O (configuration not stated),72 to 73
3,CC(=O)c1ccc(-c2nc(=O)c3ccccc3s2)cc1,198
4,CCCOc1ccc(CCCCCC(=O)O)cc1,42 to 43
5,CC(C)(c1ccc(O)cc1)c1ccc(O)c(C(C)(C)c2ccc(O)cc2)c1,190
6,Cc1nc(N2CCN(Cc3ccc(F)cc3)C2=O)sc1C(=O)NCc1ccccn1,183 to 185
7,CS(=O)(=O)c1nc2c([nH]1)N(Cc1ccc(Cl)cc1)C1NCCN1C2=O (configuration not stated),282 to 284
8,O=C(Nc1ccc(F)c(CO)c1)c1ccccn1,99 to 122
9,CCCCCCCCC1C=CC(Oc2ccc(C(=O)O)o2)=C2N=C3CCCC(C)(C)C3=C21 (configuration not stated),118 to 120
10,O=Cc1ccc(-c2nnn[nH]2)cc1,180 to 182
11,O=C1Cn2c(nc3ccccc3c2=O)-c2ccccc2N1,318 to 319
12,CCOC(=O)C(=CNC1CC1)C(=O)c1c(F)c(F)c(F)c(F)c1F,85 to 86
13,CCCN(CCC)[C@H]1Cc2c[nH]c3ccc(-c4ccno4)c(c23)C1,126 to 127
14,CCCc1c(C(=O)NCc2ccc3c(Br)c(OCc4nnn[nH]4)ccc3c2)cnn1-c1ccccc1,219 to 220
15,CC(=O)O[C@@](Cn1cncn1)(c1ccccc1F)[C@@H](C)n1ccnn1,133 to 134
16,Cc1cccc(N2C(=O)CC(Cl)C2=O)c1 (configuration not stated),137 to 138
17,CCOC(=O)NCC(=O)c1ccc(O)cc1,137 to 140
18,CCCn1c(=O)c2[nH]c(/C=C/c3cc(OC)c(OC)cc3Br)nc2n(CCC)c1=O,248 to 250
19,NCc1nnc2n1-c1sc(Cl)cc1C(c1ccccc1Cl)=NC2,190 to 192
20,CCCN(C1CCC1)[C@H]1COc2c(F)ccc(C(N)=O)c2C1,107 to 109
21,COc1cc(CO)ccc1OCc1nc(-c2ccccc2)sc1C,134 to 135
22,Cc1c(Cl)ccc2c1[nH]c1c(C(=O)NO)cccc12,200
23,COc1cc2c(c3c1OC(C)(C)C3)C(c1cccc(NC(=O)NCCCl)c1)=NC(C)(C)C2,147 to 150
24,CCCCCC(O)c1cccc(OCc2cccc(C(N)=O)c2)c1 (configuration not stated),97 to 98
